Bridge positions count the residues as written; N and C are the ends. Square brackets hold non-standard residues; d marks the D form. Peptide text beside a SMILES is read from it. * marks the point of attachment. 2Nal = N[C@@H](Cc1ccc2ccccc2c1)C(=O)O; Benzoyl(4-F) = O=C(c1ccc(F)cc1)*; Cit = NC(=O)NCCC[C@H](N)C(=O)O
What was measured:
progenitor cells = assay: In vitro production of colonies, colony-forming cell assay without stromal cells; assay type: cell-based; conditions: no stromal cells; 4F-benzoyl-TN14003 10-500 ng/ml, G-CSF 10-500 ng/ml
Procedure: In order to evaluate the number of progenitor cells, a colony-forming cell assay was used. Burst forming units erythrocyte (BFU-E), colony forming units granulocyte-macrophage (CFU-GM), colony forming units megakaryocytes (CFU-M), and colony forming units granulocyte-erythrocyte-monocyte-macrophage (CFU-GEMM) were assayed by plating the cells (10^5/ml) in Iscove's-modified Dulbecco's Medium (IMDM) containing 1% methylcellulose, 15% FBS, 1% bovine serum albumin (BSA), and 4F-benzoyl-TN14003 by itself (10-500 ng/ml) or in combination with G-CSF (in concentrations of 10-500 ng/ml).

[1] = test system: hematopoietic progenitor cells (HPCs); assay: Mobilization of hematopoietic progenitor cells to the blood, colony-forming cell assay; assay type: in vivo, C57BL/6 mice
neutrophils = assay: Chemotherapy (cyclophosphamide)-induced neutropenia model, neutrophil counts; assay type: in vivo, C57BL/6 mice; conditions: cyclophosphamide 150 + 100 mg/kg i.p. days 1 and 4, treatment s.c. days 4-7 (4F-benzoyl-TN14003 5 mg/kg)
Procedure: In the chemotherapy-induced neutropenia model, a protocol as previously described was followed (Zuluaga et al., 2006). Briefly, Female C57BL/6 mice were injected intraperitoneally with 150 and 100 mg/kg of Cyclophosphamide (CPM) on days 1 and 4, respectively. Following the treatment with CPM, mice were injected s.c. with either G-CSF […], 4F-benzoyl-TN14003 (5 mg/kg) or their combination on day 4, 5, 6 and 7. Blood samples were drawn from each mouse on day 0 and two hours after G-CSF/4F-benzoyl-TN14003 injections on days 4, 5, 6 and 7. Lysis of the erythrocyte population in the blood samples was done using ACK lysis buffer. The number of neutrophils was determined by FACS after staining the cells with anti-PE-Gr-1 antibody.
Neutropenia was induced in female C57BL/6 mice by administration of a total dose of 250 mg/kg cyclophosphamide (CPM) in two 0.5 mL intraperitoneal injections scheduled at day 1 (150 mg/kg) and day 4 (100 mg/kg). The CPM protocol caused 4 days of neutropenia (from day 4 to day 8). When mice were treated with the combination of G-CSF and 4F-benzoyl-TN14003, a significant number of neutrophils was detected in the blood on day 6, as compared to mice that were treated with CPM only or with G-CSF or 4F-benzoyl-TN14003 alone (FIG. 12).

[2] = test system: hematopoietic stem cells (HSCs); assay: Hematopoietic stem cell assay: transplantation of mobilized blood cells into lethally irradiated mice, survival; assay type: in vivo, C57BL/6 mice; conditions: 2 h
Procedure: C57BL/6 mice, served as donors, were injected with 5 mg/kg of either 4F-benzoyl-TN14003 or AMD3100. 2 h later peripheral blood cells were collected following by ACK lysis and transferred into C57BL/6 recipient mice that were given a lethal dosing of irradiation (900 cGy) 24 h before i.v. injection of cells. A total cell obtained from 900 or 225 microliter of blood was transferred into single recipient mouse in a total volume of 200 μl PBS. Recipient mice transferred with cells obtained from blood of untreated mice or with normal BM cells were served as controls. Survival of mice was monitored for 4 months.
Although mobilization of HPCs may be of use for short-term repopulation in a transplantation setting, HSCs are required for long-term repopulation. To assess the effect of 4F-benzoyl-TN14003 on mobilization of murine HSCs, a transplantation model was used, in which donor C57Bl/6 mice were treated with 4F-benzoyl-TN14003 or AMD3100. After 2 h, blood was collected and cells isolated from an equal volume of blood obtained from each treated group (900 or 225 microliter in different experiments) were transferred for engraftment in lethally irradiated recipient C57Bl/6 mice. Survival of the recipient mice, indicative for long-term repopulating (LTR) activity and presence of HSCs, was monitored.

PC3-CXCR4.5 cells = assay: MIP3α secretion by CXCR4-overexpressing PC3-CXCR4.5 cells (ELISA); assay type: cell-based; conditions: transfection with CXCR4-specific or control siRNA
Source text: A PC3 prostate cell line that overexpresses high levels of CXCR4 was generated. […] FIG. 1A presents FACS histograms of PC3 cells (left panel) and a single cell clone with stable overexpression of CXCR4, GFP and luc genes (PC3-CXCR4.5, right panel) that were stained for the control (IgG2a-PE, full histograms) and CXCR4 (IgG2a-12G5, empty histograms) antibodies.
In this example, regulation of the chemokine MIP3α (macrophage inflammatory protein 3α) was examined. […] In FIG. 1B, PC3 (left panel) and PC3-CXCR4.5 (right panel) cells were stimulated with the indicated concentrations of CXCL12 for 48 hours and MIP3α secretion was assessed by ELISA. The results represent the average of triplicates±STDEV.
The effects of the CXCR4 antagonist AMD3100 and of 4F-benzoyl-TN14003 (4FB-TN14003), hitherto known as a CXCR4 antagonist, on MIP3α secretion were further tested. […] In FIG. 10, CXCR4 signaling in PC3 (left panel) and PC3-CXCR4.5 (right panel) cells was inhibited with anti-CXCL12 antibodies (αCXCL12) and Pertussis toxin (PTX) treatments alone or in combination with CXCL12, as indicated. Secretion of MIP3α was assessed by ELISA. The results represent the average of triplicates±STDEV.
Spontaneous secretion of MIP3α is CXCL12 and PTX independent in these cells.

[3] = 5 mg/kg s.c. 4F-benzoyl-TN14003 or AMD3100, 2 h, G-CSF 2.5 μg s.c. twice a day for 4 days, combination 18 h after last G-CSF
[4] = peak at 5 and 10 mg/kg s.c., 2 h

N=C(N)NCCC[C@H](NC(=O)[C@@H]1CSSC[C@H](NC(=O)[C@H](Cc2ccc3ccccc3c2)NC(=O)[C@H](CCCNC(=N)N)NC(=O)[C@H](CCCNC(=N)N)NC(=O)c2ccc(F)cc2)C(=O)N[C@@H](Cc2ccc(O)cc2)C(=O)N[C@@H](CCCNC(N)=O)C(=O)N[C@@H](CCCCN)C(=O)N[C@H](CCCCN)C(=O)N2CCC[C@H]2C(=O)N[C@@H](Cc2ccc(O)cc2)C(=O)N[C@@H](CCCNC(=N)N)C(=O)N[C@@H](CCCNC(N)=O)C(=O)N1)C(N)=O [4F-benzoyl-TN14003, 4F-benzoly-Arg-Arg-Nal-Cys-Tyr-Cit-Lys-DLys-Pro-Tyr-Arg-Cit-Cys-Arg-NH2] ({Benzoyl(4-F)}-RR[2Nal]CY[Cit]K[dK]PYR[Cit]CR-NH2; disulfide 4-13)
production of colonies in vitro (progenitor cells): did not stimulate the production of colonies in vitro | BFU-E in blood, fold elevation of cell counts from control [1, 3]: 26 fold | CFU-GEMM in blood, fold elevation of cell counts from control [1, 3]: 44 fold | Progenitors in blood, fold elevation of cell counts from control [1, 3]: 7.1 fold | number of progenitor cells per 1 ml of blood, fold change from control ([1]; 5 mg/kg s.c., 30 min): 3.2 fold | number of progenitor cells per 1 ml of blood, fold change from control ([1]; 5 mg/kg s.c., 1 hour): 9.5 fold | BFU-E in blood, fold change from control ([1]; 5 mg/kg s.c., 1 h post injection): more than 200 fold | number of progenitor cells per 1 ml of blood, fold change from control ([1]; 5 mg/kg s.c., 2 hours): 13.6 fold | CFU-M in blood, fold change ([1]; 5 mg/kg s.c., 4 h): 4 fold | elevation in the number of progenitor cells in blood ([1]; 5 mg/kg s.c., 24 hours post-injection): almost disappeared | CFU-GM population in blood, fold elevation from control ([1]; 5 mg/kg s.c., after 2 h): 12.5 fold | number of BFU-E in blood, fold elevation from the control level ([1]; 5 and 10 mg/kg s.c., 2 h): more than 110 fold | number of progenitor cells in 1 ml of blood, fold elevation compared to non-treated mice ([1]; 5 or 10 mg/kg s.c., 2 h): ~10 fold | number of CFU-GEMM in blood, fold elevation from the control level [1, 4]: 2.5 fold | number of CFU-GM in blood, fold elevation from the control level [1, 4]: 11.8 fold | number of CFU-M in blood, fold elevation from the control level [1, 4]: 10.4 fold | number of neutrophils in blood as % of the initial number in normal (untreated) mice (neutrophils; day 6): only a mild effect | number of neutrophils in blood as % of the initial number (neutrophils; day 7): not sufficient to elevate neutrophil counts to their normal level | survival of lethally irradiated recipient mice ([2]; cells from 225 microliter of blood of donors given 5 mg/kg, day 33 post transplantation): 70.6% | survival of lethally irradiated recipient mice ([2]; cells from 900 microliter of blood of donors given 5 mg/kg, until day 42 post transplantation): one hundred | CXCR4 dependence of induced MIP3α secretion (PC3-CXCR4.5 cells): CXCR4 dependent
